Reference: patent US11466020B2, “Compounds and compositions for inhibition and elimination of Zika infection and uses for same” (Cornell University, priority 2017, dated 2022)
Where a name gives a salt, the structure may show the parent alone.

Legend:
ZIKV (MR766 strain) = experiment: Therapeutic treatment of ZIKV (MR766 strain) infected SCID-beige mice; type: in vivo; settings: HH 100 mg/kg/day subcutaneously for 5 days from day 5 post-infection
Procedure: (§1) (A) Scheme of prophylactic treatment of HH in vivo. HH was administrated to SCID-Beige mice 12 h before infection with MR766 virus strain. HH was injected at a dose of 100 mg/kg/day subcutaneously and euthanized at day 7. (B) qRT-PCR analysis of total ZIKV vRNA in liver, spleen, kidney and brain of ZIKV infected mice. n=12 for liver, spleen and kidney and 20 for brain. (C) qRT-PCR analysis of total ZIKV vRNA in brains of ZIKV-infected mice treated with vehicle (n=14) or HH (n=8). […] (D-F) Immunohistochemical analysis of adult cortex. […] HH prevents infection in all cortical cells. Scale bar=100 μm in (D) and 10 μm in (E, F). (G-I) Immunohistochemical analysis of adult hippocampus. […] HH inhibits infection of all cells in the hippocampus. […] The mice were then euthanized and RNA from brains was analyzed using qRT-PCR. […] The mice were euthanized after 7 days treatment and RNA from brains was analyzed using qRT-PCR. (W, X) qRT-PCR analysis of total vRNA (W) and (−) strand RNA (X) in the brains of mice treated with vehicle (n=8) or HH (n=11) at day 7 post-infection. p values were calculated by one-way repeated measures ANOVA or two-way repeated measures ANOVA with a Bonferroni test for multiple comparisons. *p<0.05, **p<0.01 and ***p<0.001.
(§2) To evaluate the therapeutic potential of HH, we first monitored the kinetics of ZIKV infection (MR766 strain) in the adult mouse brain. […]

ZIKV (FSS13025 strain) = experiment: Therapeutic treatment of ZIKV (FSS13025 strain) infected SCID-beige mice; type: in vivo; settings: HH 100 mg/kg/day subcutaneously for 7 days from day 7 post-infection
Procedure: as §1, §2

## CN1CCC2=C[C@H](O)[C@H]3OC(=O)c4cc5c(cc4[C@H]3[C@@H]21)OCO5 [HH, hippeastrine hydrobromide]
ZIKV (MR766 strain)
  total and replicating (-) vRNA levels in brain: significantly decreased
ZIKV (FSS13025 strain)
  total and replication (-) strand vRNA in mouse brain: significantly decreased
